# Experimental data reported in patent US6743583B2, “Identification of drugs and drug targets by detection of the stress response” (priority 2000, dated 2004).
# Tests used:
# [1] = system: ymr007w heterozygous strain; experiment: Microarray fold transcriptional induction of stress response genes; type: cell-based, Saccharomyces cerevisiae; conditions: ymr007w heterozygote, tunicamycin 0.6 μM, 1 hr, relative to wildtype no drug
# Procedure: (§1) In order to identify stress response genes suitable for use in the methods of the present invention, the induction of various stress response genes was tested using microarrays. Three 50 ml cultures were grown at 30° C., a wildtype strain, an alg7 heterozygous strain, and a ymr007w heterozygous strain (the ymr007w strain has been previously shown to be sensitive to tunicamycin, see Giaever, G. et al. (1999) Nature Genet. 21(3):278-283). The wildtype strain was grown in the absence of drug as well as in the presence of […] tunicamycin at an O.D.600 of 1, or approximately 2×10^7 cells/ml for one hour. The alg7 and ymr007w heterozygotes were grown in the presence of […] tunicamycin at an O.D.600 of 1, or approximately 2×10^7 cells/ml for 1 hour. mRNA was then collected from all four samples using standard techniques. cDNA was then prepared from […] of polyadenylated RNA from each sample, using a dT21 primer and Superscript II reverse transcriptase (GibcoBRL) according to manufacturer's recommendation. cDNA was fragmented using DNAseI (GibcoBRL), biotinylated using ddATP (NEN) and Terminal Transferase (Boehringer), and hybridized to yeast full genome arrays (Affymetrix) as described in L. Wodicka et al. (1997) Nature Biotechnol. 15, 1359-1367. Data was analyzed using Affymetrix software.
# (§2) In other experiments, the alg 7 and vmr007 heterozygous deletion strains were tested for induction of the stress response in the presence of 0.6 μM tunicamycin for 1 hr (for detailed methods see Example 4). The numbers indicate the fold induction (positive values) or the fold repression (negative values) relative to that of wildype expression in the absence of drug.
# alg7 heterozygous strain [2] = experiment: as above; type: cell-based, Saccharomyces cerevisiae; conditions: alg7 heterozygote, tunicamycin 0.6 μM, 1 hr, relative to wildtype no drug
# Procedure: as §1, §2
# Wildtype strain [3] = experiment: HSP26 promoter GFP-uv reporter stress response, fluorimeter; type: cell-based, Saccharomyces cerevisiae; parameters: key: F = fluorescent activity from hsp reporter construct, indicating stress response is induced; NF = no fluorescence, no induction of stress response; conditions: predicted expectations
# Description: (§3) Stress response gene reporter constructs are generally constructed as follows: approximately 500 bp to approximately 1,000 bp or more region upstream of the first start codon of the stress gene of interest (the region encompassing the stress response gene promoter) is fused to the coding region of a reporter polypeptide (e.g., GFP-uv in pRS316 (Sikorski and Hieter (1989) Genetics 122(1):19-27, Clontech). In a specific exemplary construct, approximately 500 bp of the sequence upstream of the hsp26 gene were ligated to the coding region of GFP-uv in pRS316 to provide for expression of the GFP-uv reporter polypeptide under control of the HSP26 promoter.
# (§4) The above-described HSP26 construct and a control construct (containing no upstream HSP26 promoter sequence) is transformed into 4 strains: a wildtype strain and strains heterozygous for ALG7, HIS3, and TUB2. The his3 heterozygous strain is sensitive to 3-amino triazole; the alg7 heterozygous strain is sensitive to tunicamycin; and the tub2 heterozygous strain is sensitive to benomyl. The expression of hsp26 activity is then monitored using a fluorimeter. Comparisons (with predicted expectations) are as follows: […]
# alg7 heterozygous strain [4] = conditions: cited from earlier work
# alg7 heterozygote = experiment: HSP26 promoter GFP-uv reporter stress response, fluorimeter; type: cell-based, Saccharomyces cerevisiae; parameters: key: F = fluorescent activity from hsp reporter construct, indicating stress response is induced; NF = no fluorescence, no induction of stress response; conditions: predicted expectations
# Description: as §3
# (§5) 80% of all heterozygous deletion strains of Saccharomyces cerevisiae have been constructed. Heterozygous deletion strains were generated using homologous gene transplacement (Rothstein, R. (1991) Meth. Enzymol. 194:281-301) in wild-type diploid strains using standard methods. The resulting heterozygotes carry a deletion in one of the two copies of a given gene.
# as §4
# his3 heterozygote = experiment: as above; type: cell-based, Saccharomyces cerevisiae; parameters: key: F = fluorescent activity from hsp reporter construct, indicating stress response is induced; NF = no fluorescence, no induction of stress response; conditions: predicted expectations
# Description: as §3, §5, §4
# tub2 heterozygote = experiment: as above; type: cell-based, Saccharomyces cerevisiae; parameters: key: F = fluorescent activity from hsp reporter construct, indicating stress response is induced; NF = no fluorescence, no induction of stress response; conditions: predicted expectations
# Description: as §3, §5, §4
# ymr007w strain = conditions: previously shown, Giaever et al. 1999; cited from earlier work
# Wildtype strain [5] = experiment: Microarray fold transcriptional induction of stress response genes; type: cell-based, Saccharomyces cerevisiae
# Procedure: as §1
# The fold induction of the indicated stress response gene is relative to expression levels in the absence of exposure to the indicated stimuli for the wildtype strain.
# [6] = TUN 0.6 μM, wildtype, relative to no drug
# [7] = Wildtype, tunicamycin 0.6 μM, 1 hr, relative to wildtype no drug (Table 9)
substance,measurement,setting,value
tunicamycin,fold induction (positive) or fold repression (negative) of HSP26 (YBR072W),[1],1.4 fold
same,fold induction (positive) or fold repression (negative) of HXT5 (YHR096C),[1],1 fold
same,fold induction (positive) or fold repression (negative) of YMR107W,[1],1 fold
same,fold induction (positive) or fold repression (negative) of HXT5 (YHR096C),alg7 heterozygous strain [2],1 fold
same,fold induction (positive) or fold repression (negative) of YMR107W,alg7 heterozygous strain [2],1 fold
same,fluorescent activity from hsp26 reporter construct,Wildtype strain [3],F
same,sensitivity of strain to drug,alg7 heterozygous strain [4],sensitive
same,fluorescent activity from hsp26 reporter construct,alg7 heterozygote,NF
same,fluorescent activity from hsp26 reporter construct,his3 heterozygote,F
same,fluorescent activity from hsp26 reporter construct,tub2 heterozygote,F
same,sensitivity of strain to drug,ymr007w strain,sensitive
same,fold induction of AMS1 (YGL156W),Wildtype strain [5]; [6],20 fold
same,fold induction of DDR48 (YMR173w),Wildtype strain [5]; [6],4.3 fold
same,fold induction of GFA1 (YKL104C),Wildtype strain [5]; [6],11.2 fold
same,fold induction of GSC2 (YGR032W),Wildtype strain [5]; [6],9.2 fold
same,fold induction of HSP10 (YOR020C),Wildtype strain [5]; [6],2 fold
same,fold induction of HSP12 (YFL014W),Wildtype strain [5]; [6],2.9 fold
same,fold induction of HSP26 (YBR072W),Wildtype strain [5]; [6],18 fold
same,fold induction of HSP30 (YCR021C),Wildtype strain [5]; [6],2 fold
same,fold induction of HSP42 (YDR171w),Wildtype strain [5]; [6],6 fold
same,fold induction of HSP60 (YLR259C),Wildtype strain [5]; [6],1 fold
same,fold induction of HSP78 (YDR258C),Wildtype strain [5]; [6],6.5 fold
same,fold induction of HSP82 (YPL240C),Wildtype strain [5]; [6],2.8 fold
same,fold induction of HSP104 (YLL026W),Wildtype strain [5]; [6],2 fold
same,fold induction of HXT5 (YHR096C),Wildtype strain [5]; [6],200 fold
same,fold induction of ISF1 (YMR081C),Wildtype strain [5]; [6],3.5 fold
same,fold induction of PAI3 (YMR174C),Wildtype strain [5]; [6],6.1 fold
same,fold induction of PRY1 (YJL079C),Wildtype strain [5]; [6],13 fold
same,fold induction of PUT1 (YLR142W),Wildtype strain [5]; [6],25 fold
same,fold induction of SNZ3 (YFL059W),Wildtype strain [5]; [6],25 fold
same,fold induction of SSA1 (YAL005C),Wildtype strain [5]; [6],1 fold
same,fold induction of TSI1 (YLR178C),Wildtype strain [5]; [6],6.2 fold
same,fold induction of UBC5 (YDR059c),Wildtype strain [5]; [6],2.1 fold
same,fold induction of YBL049W,Wildtype strain [5]; [6],15 fold
same,fold induction of YDR018C,Wildtype strain [5]; [6],7.5 fold
same,fold induction of YFL030W,Wildtype strain [5]; [6],11 fold
same,fold induction of YFR026C,Wildtype strain [5]; [6],20.9 fold
same,fold induction of YGR043C,Wildtype strain [5]; [6],17 fold
same,fold induction of YIL042C,Wildtype strain [5]; [6],5 fold
same,fold induction of YIL117C,Wildtype strain [5]; [6],13 fold
same,fold induction of YJL144W,Wildtype strain [5]; [6],19.1 fold
same,fold induction of YKL107W,Wildtype strain [5]; [6],112 fold
same,fold induction of YLR053C,Wildtype strain [5]; [6],200 fold
same,fold induction of YLR080W,Wildtype strain [5]; [6],8.4 fold
same,fold induction of YLR194C,Wildtype strain [5]; [6],5.1 fold
same,fold induction of YMR040W,Wildtype strain [5]; [6],12.8 fold
same,fold induction of YMR090W,Wildtype strain [5]; [6],5.6 fold
same,fold induction of YMR107W,Wildtype strain [5]; [6],79 fold
same,fold induction of YNL194C,Wildtype strain [5]; [6],4.5 fold
same,fold induction of YPS3 (YLR121C),Wildtype strain [5]; [6],15 fold
same,fold induction (positive) or fold repression (negative) of HSP26 (YBR072W),Wildtype strain [5]; [7],17 fold
same,fold induction (positive) or fold repression (negative) of HXT5 (YHR096C),Wildtype strain [5]; [7],50 fold
same,fold induction (positive) or fold repression (negative) of YGR043C,Wildtype strain [5]; [7],17 fold
same,fold induction (positive) or fold repression (negative) of YMR107W,Wildtype strain [5]; [7],40 fold
same,fold induction (positive) or fold repression (negative) of YPS3 (YLR121C),Wildtype strain [5]; [7],15 fold
